Test results: ChEMBL document CHEMBL2040764, “Bioactive briarane diterpenoids from the South China Sea gorgonian Dichotella gemmacea” (Bioorg Med Chem Lett, 2012)
pIC50: −log10 of the molar value. Activity calls are given as the source filed them. The rule behind the calls is not given here.

Assays:
A549 = test: Cytotoxicity against human A549 cells by MTT assay; assay type: functional, cell-based
[1] = system: Zymoseptoria tritici (Septoria tritici); test: Antifungal activity against Septoria tritici at 2 mg/ml by agar diffusion test; settings: read-out: DIZ
Priestia megaterium [2] = test: Antibacterial activity against Bacillus megaterium at 2 mg/ml by agar diffusion test; assay type: functional, organism-based
Microbotryum violaceum [3] = test: Antifungal activity against Microbotryum violaceum at 2 mg/ml by agar diffusion test; assay type: functional; settings: read-out: DIZ
Escherichia coli [4] = test: Antibacterial activity against Escherichia coli at 2 mg/ml by agar diffusion test; assay type: functional; settings: read-out: DIZ
MG-63 = test: Cytotoxicity against human MG63 cells by MTT assay; assay type: functional, cell-based
Priestia megaterium [5] = test: Antibacterial activity against Bacillus megaterium at 0.05 mg by agar diffusion test; assay type: functional; settings: read-out: DIZ
Escherichia coli [6] = test: Antibacterial activity against Escherichia coli at 0.05 mg by agar diffusion test; assay type: functional; settings: read-out: DIZ
Microbotryum violaceum [7] = test: Antifungal activity against Microbotryum violaceum at 0.05 mg by agar diffusion test; assay type: functional; settings: read-out: DIZ
Zymoseptoria tritici = test: Antifungal activity against Septoria tritici at 0.05 mg by agar diffusion test; settings: read-out: DIZ

Q: `C=C1[C@H]2O[C@]3([C@@H](C)C(=O)O[C@H]3[C@H]1Cl)[C@@H](OC(C)=O)[C@H]1[C@@]3(CO3)[C@H](OC(C)=O)C[C@H](OC(C)=O)[C@]1(C)[C@@H](OC(C)=O)[C@H]2OC(C)=O` (relative stereo) was tested. Which pIC50 (A549) did it give?
A: < 4.34

Q: And the zone of inhibition at 2000 µg/mL [1]?
A: 12 mm

Q: What about the Activity (Priestia megaterium [2]) of the same compound?
A: inactive

Q: And the zone of inhibition at 2000 µg/mL (Microbotryum violaceum [3])?
A: 15 mm

Q: What about the zone of inhibition at 2000 µg/mL (Escherichia coli [4]) of the same compound?
A: 20 mm

Q: And the pIC50 (MG-63)?
A: < 4.34

Q: How did the pIC50 (A549) turn out when `C=C1[C@H]2O[C@]3([C@@H](C)C(=O)O[C@H]3[C@H]1Cl)[C@@H](OC(C)=O)[C@H]1[C@@]3(CO3)[C@H](OC(=O)CC(C)C)C[C@H](OC(C)=O)[C@]1(C)[C@@H](OC(C)=O)[C@H]2OC(C)=O` (relative stereo) was run?
A: > 6.52

Q: What about the zone of inhibition at 2000 µg/mL [1] of the same compound?
A: 13 mm

Q: What about the Activity (Priestia megaterium [2]) of the same compound?
A: inactive

Q: And the zone of inhibition at 2000 µg/mL (Microbotryum violaceum [3])?
A: 11 mm

Q: What about the zone of inhibition at 2000 µg/mL (Escherichia coli [4]) of the same compound?
A: 34 mm

Q: And the pIC50 (MG-63)?
A: > 6.52

Q: How did the pIC50 (A549) turn out when `C=C1[C@H](OC(C)=O)C[C@H](OC(C)=O)[C@@]2(C)[C@@H](OC(C)=O)C[C@@H](OC(=O)CC(C)C)[C@]3(CO3)[C@@H]2[C@H](OC(C)=O)[C@]2(O)[C@@H](C)C(=O)O[C@H]2[C@H]1Cl` (relative stereo) was run?
A: 4.77

Q: And the zone of inhibition at 2000 µg/mL [1]?
A: 14 mm

Q: And the Activity (Priestia megaterium [2])?
A: inactive

Q: What about the zone of inhibition at 2000 µg/mL (Microbotryum violaceum [3]) of the same compound?
A: 14 mm

Q: And the zone of inhibition at 2000 µg/mL (Escherichia coli [4])?
A: 19 mm

Q: What about the pIC50 (MG-63) of the same compound?
A: 4.74

Q: `COc1cccc2c1C(=O)c1c(O)c3c(c(O)c1C2=O)C[C@@](O)(C(=O)CO)C[C@@H]3O[C@H]1C[C@H](N)[C@H](O)[C@H](C)O1` [DOXORUBICIN] was tested. Which pIC50 (MG-63) did it give?
A: 5.49

Q: How did the pIC50 (A549) turn out when `C=C1[C@H](OC(=O)CC(C)C)C[C@H](OC(C)=O)[C@@]2(C)[C@@H](OC(C)=O)[C@@H](OC(=O)CC(C)C)[C@@H](OC(C)=O)[C@]3(CO3)[C@@H]2[C@H](OC(C)=O)[C@]2(O)[C@@H](C)C(=O)O[C@H]2[C@H]1Cl` (relative stereo) was run?
A: 4.72

Q: What about the zone of inhibition at 2000 µg/mL [1] of the same compound?
A: 17 mm

Q: And the Activity (Priestia megaterium [2])?
A: inactive

Q: What about the zone of inhibition at 2000 µg/mL (Microbotryum violaceum [3]) of the same compound?
A: 13 mm

Q: And the zone of inhibition at 2000 µg/mL (Escherichia coli [4])?
A: 17 mm

Q: And the pIC50 (MG-63)?
A: 4.76

Q: How did the pIC50 (A549) turn out when `C=C1CC[C@H](OC(C)=O)[C@@]2(C)[C@@H](OC(C)=O)C[C@@H](OC(=O)CC(C)C)[C@]3(CO3)[C@@H]2[C@H](OC(C)=O)[C@]2(O)[C@@H](C)C(=O)O[C@H]2[C@H]1Cl` [JUNCENOLIDE J] was run?
A: < 4.33

Q: And the zone of inhibition at 2000 µg/mL [1]?
A: 12 mm

Q: And the Activity (Priestia megaterium [2])?
A: inactive

Q: What about the zone of inhibition at 2000 µg/mL (Microbotryum violaceum [3]) of the same compound?
A: 10 mm

Q: What about the zone of inhibition at 2000 µg/mL (Escherichia coli [4]) of the same compound?
A: 11 mm

Q: And the pIC50 (MG-63)?
A: < 4.33

Q: `C=C1[C@H](OC(C)=O)C[C@H](OC(C)=O)[C@@]2(C)[C@@H](OC(C)=O)C[C@@H](OC(C)=O)[C@]3(CO3)[C@@H]2[C@H](OC(C)=O)[C@]2(O)[C@@H](C)C(=O)O[C@H]2[C@H]1Cl` (relative stereo) was tested. Which pIC50 (A549) did it give?
A: > 5.82

Q: And the zone of inhibition at 2000 µg/mL [1]?
A: 13 mm

Q: What about the Activity (Priestia megaterium [2]) of the same compound?
A: inactive

Q: And the zone of inhibition at 2000 µg/mL (Microbotryum violaceum [3])?
A: 11 mm

Q: What about the zone of inhibition at 2000 µg/mL (Escherichia coli [4]) of the same compound?
A: 20 mm

Q: What about the pIC50 (MG-63) of the same compound?
A: 4.69

Q: What does the source list for `CC(=O)N1CCN(c2ccc(OCC3COC(Cn4ccnc4)(c4ccc(Cl)cc4Cl)O3)cc2)CC1` (stereo unspecified) [KETOCONAZOLE]?
A: zone of inhibition at 50 µg/disc (Priestia megaterium [5]): 18 mm; zone of inhibition at 50 µg/disc (Escherichia coli [6]): 18 mm; zone of inhibition at 50 µg/disc (Microbotryum violaceum [7]): 30 mm; zone of inhibition at 50 µg/disc (Zymoseptoria tritici): 25 mm

Q: `C=C1[C@H](OC(C)=O)C[C@H](OC(C)=O)[C@@]2(C)[C@@H](OC(=O)CC(C)C)C[C@@H](OC(C)=O)[C@]3(CO3)[C@@H]2[C@H](OC(C)=O)[C@]2(O)[C@@H](C)C(=O)O[C@H]2[C@H]1Cl` (relative stereo) was tested. Which pIC50 (A549) did it give?
A: 4.74

Q: And the zone of inhibition at 2000 µg/mL [1]?
A: 9.5 mm

Q: And the Activity (Priestia megaterium [2])?
A: inactive

Q: And the zone of inhibition at 2000 µg/mL (Microbotryum violaceum [3])?
A: 9.5 mm

Q: What about the zone of inhibition at 2000 µg/mL (Escherichia coli [4]) of the same compound?
A: 20 mm

Q: What about the pIC50 (MG-63) of the same compound?
A: 4.82

Q: `CC1(C)S[C@@H]2[C@H](NC(=O)Cc3ccccc3)C(=O)N2[C@H]1C(=O)O` [PENICILLIN G] was tested. Which zone of inhibition at 50 µg/disc (Priestia megaterium [5]) did it give?
A: 18 mm

Q: And the zone of inhibition at 50 µg/disc (Escherichia coli [6])?
A: 26 mm

Q: And the zone of inhibition at 50 µg/disc (Microbotryum violaceum [7])?
A: 14 mm

Q: What about the zone of inhibition at 50 µg/disc (Zymoseptoria tritici) of the same compound?
A: 12 mm

Q: Which zone of inhibition at 50 µg/disc (Priestia megaterium [5]) does the source give for `CN[C@@H]1[C@H](O[C@H]2[C@H](O[C@H]3[C@H](O)[C@@H](O)[C@H](N=C(N)N)[C@@H](O)[C@@H]3N=C(N)N)O[C@@H](C)[C@]2(O)C=O)O[C@@H](CO)[C@H](O)[C@H]1O` [STREPTOMYCIN] here?
A: 11 mm

Q: And the zone of inhibition at 50 µg/disc (Escherichia coli [6])?
A: 18 mm

Q: What about the zone of inhibition at 50 µg/disc (Microbotryum violaceum [7]) of the same compound?
A: 16 mm

Q: What about the zone of inhibition at 50 µg/disc (Zymoseptoria tritici) of the same compound?
A: 11 mm

Q: How did the pIC50 (A549) turn out when `C=C1[C@H](Cl)[C@@H]2OC(=O)[C@H](C)[C@]23O[C@@H]1[C@H](OC(C)=O)[C@H](OC(C)=O)[C@@]1(C)[C@@H](OC(C)=O)CC[C@]2(CO2)[C@@H]1[C@@H]3OC(C)=O` [PRAELOLIDE] was run?
A: < 4.30

Q: What about the zone of inhibition at 2000 µg/mL [1] of the same compound?
A: 15 mm

Q: And the Activity (Priestia megaterium [2])?
A: inactive

Q: And the zone of inhibition at 2000 µg/mL (Microbotryum violaceum [3])?
A: 11 mm

Q: And the zone of inhibition at 2000 µg/mL (Escherichia coli [4])?
A: 18 mm

Q: What about the pIC50 (MG-63) of the same compound?
A: < 4.30
